Key:
Experiment in all cases: relative viability (nuclei count vs DMSO), 5 days (fraction); higher = more cells survive
[1] = compound: CC(C)C[C@H](NC(=O)[C@H](CCc1ccccc1)NC(=O)CN1CCOCC1)C(=O)N[C@@H](Cc1ccccc1)C(=O)N[C@@H](CC(C)C)C(=O)[C@@]1(C)CO1 [Carfilzomib] + Nc1nc2[nH]cc(CCc3ccc(C(=O)N[C@@H](CCC(=O)O)C(=O)O)cc3)c2c(=O)[nH]1 [Pemetrexed] (partner 0.2 µM)
Outline: (§1)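 Lung cancer cell lines were pin-tool dosed in 1536-well plates on the day after seeding, with either a lone drug or a fixed anchor-drug dose plus five library-drug doses (not always all listed) in √10 steps. Nuclei were counted on 4× images after 5 days. Relative viability is the ratio of treated-well to vehicle-well nuclei counts, with each value a median of duplicate plates.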

[2] = compound: CC(C)C[C@H](NC(=O)[C@H](CCc1ccccc1)NC(=O)CN1CCOCC1)C(=O)N[C@@H](Cc1ccccc1)C(=O)N[C@@H](CC(C)C)C(=O)[C@@]1(C)CO1 [Carfilzomib] + O=C(c1cc(Cc2n[nH]c(=O)c3ccccc23)ccc1F)N1CCN(C(=O)C2CC2)CC1 [Olaparib] (partner 8 µM)
Outline: as §1

[3] = compound: C[C@@H](Oc1cc(-c2cnn(C3CCNCC3)c2)cnc1N)c1c(Cl)ccc(F)c1Cl [Crizotinib] + N=C(N)NC(=N)NCCc1ccccc1 [Phenformin] (partner 250 µM)
Outline: as §1

[4] = compound: O=C(c1cc(Cc2n[nH]c(=O)c3ccccc23)ccc1F)N1CCN(C(=O)C2CC2)CC1 [Olaparib] + COc1cccc2cc(-c3nc([C@H]4CC[C@H](C(=O)O)CC4)n4ncnc(N)c34)[nH]c12 [OSI-027] (partner 0.5 µM)
Outline: as §1

Cell Line	relative viability ([1]; first compound 0.001 µM)	relative viability ([1]; first compound 0.003162 µM)	relative viability ([1]; first compound 0.01 µM)	relative viability ([1]; first compound 0.03162 µM)	relative viability ([1]; first compound 0.1 µM)	relative viability ([2]; first compound 0.001 µM)	relative viability ([2]; first compound 0.003162 µM)	relative viability ([2]; first compound 0.01 µM)	relative viability ([2]; first compound 0.03162 µM)	relative viability ([2]; first compound 0.1 µM)	relative viability ([3]; first compound 0.01 µM)	relative viability ([3]; first compound 0.03162 µM)	relative viability ([3]; first compound 0.1 µM)	relative viability ([3]; first compound 0.3162 µM)	relative viability ([3]; first compound 1 µM)	relative viability ([4]; first compound 0.08 µM)	relative viability ([4]; first compound 0.253 µM)	relative viability ([4]; first compound 2.53 µM)	relative viability ([4]; first compound 8 µM)
NCI-H2009	1.06	1.05	1.04	0.868	0.124	0.736	0.732	0.729	0.631	0.0565	0.479	0.492	0.513	0.426	0.458	0.739	0.601	0.645	0.458
NCI-H2023	0.237	0.247	0.227	0.141	0.0695	0.484	0.521	0.486	0.133	0.0615	0.397	0.406	0.409	0.304	0.322	0.445	0.356	0.406	0.276
NCI-H2085	0.784	0.941	0.968	0.54	0.301	0.771	0.739	0.749	0.372	0.244	0.626	0.807	0.703		0.872	1.15	0.687	0.698	0.751
NCI-H2087	0.624	0.656	0.57	0.0837	0.0365	0.589	0.783	0.374	0.0505	0.0285	0.36	0.502	0.508		0.462	0.794	0.489	0.501	0.49
NCI-H2126	0.612	0.702	0.678	0.617	0.424	0.897	1.01	0.957	0.746	0.464	0.464	0.591	0.511	0.528	0.507	0.766	0.669	0.794	0.639
NCI-H2170	0.262	0.277	0.254	0.24	0.183	0.6	0.674	0.588	0.218	0.117	0.394	0.443	0.419	0.428	0.423	0.809	0.685	0.679	0.694

Source: the supplement of paper PMC10307832
